The molecules below were run against T1, human PDE5 (Homo sapiens, UniProt O76074) (assay: Inhibition of the type 5 phosphodiesterase (PDE5) activity, modified SPA test with platelet lysate). Conditions: PDE5 from human platelet lysate, 0.5 μM cGMP.
T1 construct: from tissue; host or cells: platelets from fresh blood of human donors (lysate, 10,000 g supernatant)
Format: biochemical
In short: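 Human platelet lysate (10,000 g supernatant) as PDE5 source in SPA with 0.5 μM cGMP plus [3H]cGMP tracer, pH 7.4, 5 mM Mg2+, 1 μM motapizone and 10 nM PDE2 inhibitor; 10–20% conversion. 5 min preincubation, 15 min at 37 °C, stopped with SPA beads/IBMX. IC50 by non-linear regression.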

Row | SMILES | IC50 [nM]
1 | O=C(N[C@H]1CCN(C(=O)CO)C1)c1c[nH]c2c(-c3c(OCC4CC4)ccc4c3OCO4)ncnc12 [Example 183, 4-(5-Cyclopropylmethoxy-benzo[1,3]dioxol-4-yl)-5H-pyrrolo[3,2-d]pyrimidine-7-carboxylic acid [(S)-1-(2-hydroxy-ethanoyl)-pyrrolidin-3-yl]amide] | 1.86
2 | C[C@H](O)C(=O)N1CC[C@H](NC(=O)c2c[nH]c3c(-c4c(OCC5CC5)ccc5c4OCO5)ncnc23)C1 [Example 184, 4-(5-Cyclopropylmethoxy-benzo[1,3]dioxol-4-yl)-5H-pyrrolo[3,2-d]pyrimidine-7-carboxylic acid [(S)-1-((S)-2-hydroxy-propanoyl)-pyrrolidin-3-yl]amide] | 3.16
3 | O=C(N[C@H]1CCN(C(=O)C2(O)CC2)C1)c1c[nH]c2c(-c3c(OCC4CC4)ccc4c3OCO4)ncnc12 [Example 185, 4-(5-Cyclopropylmethoxy-benzo[1,3]dioxol-4-yl)-5H-pyrrolo[3,2-d]pyrimidine-7-carboxylic acid {(S)-1-[1-(1-hydroxy-cyclopropyl)-methanoyl]-pyrrolidin-3-yl}-amide] | 2.04
4 | O=C(NCC1CCN(C(=O)CO)C1)c1c[nH]c2c(-c3c(OCC4CC4)ccc4c3OCO4)ncnc12 (centres unmarked) [Example 191, 4-(5-Cyclopropylmethoxy-benzo[1,3]dioxol-4-yl)-5H-pyrrolo[3,2-d]pyrimidine-7-carboxylic acid [1-(2-hydroxy-acetyl)pyrrolidin-3-ylmethyl]-amide] | 1.02
5 | C[C@H](O)C(=O)N1CCC(CNC(=O)c2c[nH]c3c(-c4c(OCC5CC5)ccc5c4OCO5)ncnc23)C1 (stereo partly drawn) [Example 192, 4-(5-Cyclopropylmethoxy-benzo[1,3]dioxol-4-yl)-5H-pyrrolo[3,2-d]pyrimidine-7-carboxylic acid [1-((S)-2-hydroxy-propionyl)pyrrolidin-3-ylmethyl]-amide] | 0.832
6 | O=C(NCC1CN(C(=O)CO)CCO1)c1c[nH]c2c(-c3c(OCC4CC4)ccc4c3OCO4)ncnc12 (centres unmarked) [Example 193, 4-(5-Cyclopropylmethoxy-benzo[1,3]dioxol-4-yl)-5H-pyrrolo[3,2-d]pyrimidine-7-carboxylic acid [4-(2-hydroxy-acetyl)morpholin-2-ylmethyl]-amide] | 1.07
7 | C[C@H](O)C(=O)N1CCOC(CNC(=O)c2c[nH]c3c(-c4c(OCC5CC5)ccc5c4OCO5)ncnc23)C1 (stereo partly drawn) [Example 194, 4-(5-Cyclopropylmethoxy-benzo[1,3]dioxol-4-yl)-5H-pyrrolo[3,2-d]pyrimidine-7-carboxylic acid [4-((S)-2-hydroxy-propionyl)-morpholin-2-ylmethyl]-amide] | 0.832
8 | O=C(NC1CN(C(=O)CO)C1)c1c[nH]c2c(-c3c(OCC4CC4)ccc4c3OCO4)ncnc12 [Example 195, 4-(5-Cyclopropylmethoxy-benzo[1,3]dioxol-4-yl)-5H-pyrrolo[3,2-d]pyrimidine-7-carboxylic acid [1-(2-hydroxy-ethanoyl)-azetidin-3-yl]-amide] | 1.32
9 | C[C@H](O)C(=O)N1CC(NC(=O)c2c[nH]c3c(-c4c(OCC5CC5)ccc5c4OCO5)ncnc23)C1 [Example 196, 4-(5-Cyclopropylmethoxy-benzo[1,3]dioxol-4-yl)-5H-pyrrolo[3,2-d]pyrimidine-7-carboxylic acid [1-((S)-2-hydroxy-propanoyl)azetidin-3-yl]-amide] | 0.759
10 | C[C@H](O)C(=O)N1CCC[C@H](NC(=O)c2c[nH]c3c(-c4c(OCC5CC5)ccc5c4OCO5)ncnc23)C1 [Example 197, 4-(5-Cyclopropylmethoxy-benzo[1,3]dioxol-4-yl)-5H-pyrrolo[3,2-d]pyrimidine-7-carboxylic acid [(S)-1-((S)-2-hydroxy-propanoyl)piperidin-3-yl]-amide] | 0.851
11 | COc1ccc(-c2ncnc3c(C(=O)N[C@H]4CC[C@@H](NC(=O)CO)CC4)c[nH]c23)c(OCC2CC2)c1 [Example 202, cis-4-(2-Cyclopropylmethoxy-4-methoxy-phenyl)-5H-pyrrolo[3,2-d]pyrimidine-7-carboxylic acid [4-(2-hydroxy-acetylamino)-cyclohexyl]-amide] | 0.741
12 | COc1ccc(-c2ncnc3c(C(=O)NC4CCN(C(=O)CO)CC4)c[nH]c23)c(OCC2CC2)c1 [Example 205, 4-(2-Cyclopropylmethoxy-4-methoxy-phenyl)-5H-pyrrolo[3,2-d]pyrimidine-7-carboxylic acid [1-(2-hydroxy-ethanoyl)-piperidin-4-yl]amide] | 0.832

These reach a lower IC50. Values come first.

Row | IC50 [nM] | SMILES
13 | 0.589 | C[C@H](O)C(=O)N1CC[C@@H](NC(=O)c2c[nH]c3c(-c4c(OCC5CC5)ccc5c4OCO5)ncnc23)C1 [Example 181, 4-(5-Cyclopropylmethoxy-benzo[1,3]dioxol-4-yl)-5H-pyrrolo[3,2-d]pyrimidine-7-carboxylic acid [(R)-1-((S)-2-hydroxy-propanoyl)-pyrrolidin-3-yl]amide]
14 | 0.479 | O=C(N[C@@H]1CCN(C(=O)C2(O)CC2)C1)c1c[nH]c2c(-c3c(OCC4CC4)ccc4c3OCO4)ncnc12 [Example 182, 4-(5-Cyclopropylmethoxy-benzo[1,3]dioxol-4-yl)-5H-pyrrolo[3,2-d]pyrimidine-7-carboxylic acid {(R)-1-[1-(1-hydroxy-cyclopropyl)-methanoyl]-pyrrolidin-3-yl}-amide]
15 | 0.55 | O=C(NCC1CCN(C(=O)CO)CC1)c1c[nH]c2c(-c3c(OCC4CC4)ccc4c3OCO4)ncnc12 [Example 186, 4-(5-Cyclopropylmethoxy-benzo[1,3]dioxol-4-yl)-5H-pyrrolo[3,2-d]pyrimidine-7-carboxylic acid [1-(2-hydroxy-ethanoyl)-piperidin-4-ylmethyl]-amide]
16 | 0.457 | C[C@H](O)C(=O)N1CCC(CNC(=O)c2c[nH]c3c(-c4c(OCC5CC5)ccc5c4OCO5)ncnc23)CC1 [Example 187, 4-(5-Cyclopropylmethoxy-benzo[1,3]dioxol-4-yl)-5H-pyrrolo[3,2-d]pyrimidine-7-carboxylic acid [1-((S)-2-hydroxy-propanoyl)piperidin-4-ylmethyl]-amide]
17 | 0.513 | O=C(NCC1CCN(C(=O)C2(O)CC2)CC1)c1c[nH]c2c(-c3c(OCC4CC4)ccc4c3OCO4)ncnc12 [Example 188, 4-(5-Cyclopropylmethoxy-benzo[1,3]dioxol-4-yl)-5H-pyrrolo[3,2-d]pyrimidine-7-carboxylic acid {1-[1-(1-hydroxy-cyclopropyl)-methanoyl]-piperidin-4-ylmethyl}-amide]
18 | 0.389 | O=C(NCC1CCCN(C(=O)CO)C1)c1c[nH]c2c(-c3c(OCC4CC4)ccc4c3OCO4)ncnc12 (centres unmarked) [Example 189, 4-(5-Cyclopropylmethoxy-benzo[1,3]dioxol-4-yl)-5H-pyrrolo[3,2-d]pyrimidine-7-carboxylic acid [1-(2-hydroxy-acetyl)piperidin-3-ylmethyl]-amide]
19 | 0.251 | C[C@H](O)C(=O)N1CCCC(CNC(=O)c2c[nH]c3c(-c4c(OCC5CC5)ccc5c4OCO5)ncnc23)C1 (stereo partly drawn) [Example 190, 4-(5-Cyclopropylmethoxy-benzo[1,3]dioxol-4-yl)-5H-pyrrolo[3,2-d]pyrimidine-7-carboxylic acid [1-((S)-2-hydroxy-propionyl)piperidin-3-ylmethyl]-amide]
20 | 0.617 | C[C@H](O)C(=O)N1CCC[C@@H](NC(=O)c2c[nH]c3c(-c4c(OCC5CC5)ccc5c4OCO5)ncnc23)C1 [Example 198, 4-(5-Cyclopropylmethoxy-benzo[1,3]dioxol-4-yl)-5H-pyrrolo[3,2-d]pyrimidine-7-carboxylic acid [(R)-1-((S)-2-hydroxy-propanoyl)piperidin-3-yl]-amide]
21 | 0.589 | COc1ccc(-c2ncnc3c(C(=O)N[C@H]4CC[C@H](NC(=O)CO)CC4)c[nH]c23)c(OCC2CC2)c1 [Example 199, trans-4-(2-Cyclopropylmethoxy-4-methoxy-phenyl)-5H-pyrrolo[3,2-d]pyrimidine-7-carboxylic acid [4-(2-hydroxy-acetylamino)-cyclohexyl]-amide]
22 | 0.479 | COc1ccc(-c2ncnc3c(C(=O)N[C@H]4CC[C@H](NC(=O)[C@H](C)O)CC4)c[nH]c23)c(OCC2CC2)c1 [Example 200, trans-4-(2-Cyclopropylmethoxy-4-methoxy-phenyl)-5H-pyrrolo[3,2-d]pyrimidine-7-carboxylic acid [4-((S)-2-hydroxy-propionylamino)-cyclohexyl]-amide]
23 | 0.407 | COc1ccc(-c2ncnc3c(C(=O)N[C@H]4CC[C@H](NC(=O)C5(O)CC5)CC4)c[nH]c23)c(OCC2CC2)c1 [Example 201, trans-4-(2-Cyclopropylmethoxy-4-methoxy-phenyl)-5H-pyrrolo[3,2-d]pyrimidine-7-carboxylic acid {4-[(1-hydroxy-cyclopropanecarbonyl)-amino]-cyclohexyl}-amide]
24 | 0.389 | COc1ccc(-c2ncnc3c(C(=O)N[C@H]4CC[C@@H](NC(=O)[C@H](C)O)CC4)c[nH]c23)c(OCC2CC2)c1 [Example 203, cis-4-(2-Cyclopropylmethoxy-4-methoxy-phenyl)-5H-pyrrolo[3,2-d]pyrimidine-7-carboxylic acid [4-((S)-2-hydroxy-propionylamino)-cyclohexyl]-amide]
25 | 0.257 | COc1ccc(-c2ncnc3c(C(=O)N[C@H]4CC[C@@H](NC(=O)C5(O)CC5)CC4)c[nH]c23)c(OCC2CC2)c1 [Example 204, cis-4-(2-Cyclopropylmethoxy-4-methoxy-phenyl)-5H-pyrrolo[3,2-d]pyrimidine-7-carboxylic acid {-[(1-hydroxy-cyclopropanecarbonyl)-amino]-cyclohexyl}-amide]
26 | 0.661 | COc1ccc(-c2ncnc3c(C(=O)NC4CCN(C(=O)[C@H](C)O)CC4)c[nH]c23)c(OCC2CC2)c1 [Example 206, 4-(2-Cyclopropylmethoxy-4-methoxy-phenyl)-5H-pyrrolo[3,2-d]pyrimidine-7-carboxylic acid [1-((S)-2-hydroxy-propanoyl)piperidin-4-yl]-amide]
